Assay: solvent given as SMILES

For `CC(C)CCCCN1CCc2c1ccc1c3c(ccc21)C(=O)CCC3`, which emission maximum (in C1CCCCC1) is on record?
Its emission maximum is 433 nm.

And the emission maximum (in CC#N)?
The emission maximum was 489 nm.

What about the emission maximum (in CC(C)O) of the same molecule?
The emission maximum was 512 nm.

What about the emission maximum (in CCC(C)=O) of the same molecule?
Its emission maximum is 481 nm.

And the emission maximum (in CCO)?
The emission maximum was 522 nm.

And the emission maximum (in CCOC(C)=O)?
The emission maximum was 467 nm.

What about the emission maximum (in CS(C)=O) of the same molecule?
Its emission maximum is 472 nm.

And the emission maximum (in Cc1ccccc1)?
The emission maximum was 452 nm.

And the emission maximum (in ClCCl)?
Its emission maximum is 472 nm.

What about the emission maximum (in Clc1ccccc1) of the same molecule?
Its emission maximum is 462 nm.

For `O=P1(c2ccccc2)c2cc(N3c4ccccc4Oc4ccccc43)ccc2-c2ccc(N3c4ccccc4Oc4ccccc43)cc21`, which emission maximum (in Cc1ccccc1) is on record?
Its emission maximum is 540 nm.

What about the emission maximum (in c1ccc2c(c1)c1ccccc1n2-c1ccc(-c2ccc(-n3c4ccccc4c4ccccc43)cc2)cc1) of the same molecule?
The emission maximum was 550 nm.

With `Brc1ccc2[nH]c(-c3ccc(-c4ccc(-c5ccc(-c6nc7cc(Br)ccc7[nH]6)cc5)cc4)cc3)nc2c1` as the molecule, how does the emission maximum (in CN(C)C=O) read?
Its emission maximum is 410 nm.

For `CSc1cc(-c2cc3cc4c5c(c3oc2=O)CCCN5CCC4)oc(=O)c1C#N`, which emission maximum (in C1CCOC1) is on record?
Its emission maximum is 580 nm.

What about the emission maximum (in CC#N) of the same molecule?
Its emission maximum is 603 nm.

What about the emission maximum (in CC(C)=O) of the same molecule?
The emission maximum was 596 nm.

What about the emission maximum (in CCOC(C)=O) of the same molecule?
Its emission maximum is 575 nm.

What about the emission maximum (in CN(C)C=O) of the same molecule?
The emission maximum was 612 nm.

And the emission maximum (in CO)?
The emission maximum was 601 nm.

What about the emission maximum (in CS(C)=O) of the same molecule?
The emission maximum was 616 nm.

What about the emission maximum (in Cc1ccccc1) of the same molecule?
Its emission maximum is 553 nm.

What about the emission maximum (in ClC(Cl)Cl) of the same molecule?
The emission maximum was 570 nm.

What about the emission maximum (in ClCCl) of the same molecule?
Its emission maximum is 586 nm.

For `COc1ccc2cc(-c3ccc(-c4cc5ccc(OC)cc5oc4=O)cc3)c(=O)oc2c1`, which emission maximum (in ClC(Cl)Cl) is on record?
The emission maximum was 434 nm.

What does the source list for `c1ccc(-c2nc(-c3ccccc3)nc(-c3ccc(-n4c5ccccc5c5cc(-n6c7ccccc7c7ccccc76)ccc54)c4c5ccccc5n(-c5ccccc5)c34)n2)cc1`?
emission maximum (in C1CCOC1): 496.59 nm; emission maximum (in Cc1ccccc1): 429 nm; emission maximum (in ClCCl): 531.36 nm

With `N#Cc1c2oc3ccccc3oc2c(C#N)c2oc3ccccc3oc12` as the molecule, how does the emission maximum (in ClC(Cl)Cl) read?
The emission maximum was 475 nm.

With `CCN(C)c1ccc(C2=C3C(C)=CC(C)=[N+]3[B-](F)(F)n3c(C)cc(C)c32)cc1` as the molecule, how does the emission maximum (in CO) read?
Its emission maximum is 513 nm.

With `CC[N+](CC)=c1ccc2nc3c(cc(NCCC(=O)NC(C)C(=O)OC)c4ccccc43)oc-2c1` (stereo unspecified) as the molecule, how does the emission maximum (in CCO) read?
The emission maximum was 672 nm.

What about the emission maximum (in O) of the same molecule?
Its emission maximum is 684 nm.

For `Cc1ccccc1-c1c2ccc(=[N+]3CCCC3)cc-2oc2cc(N3CCCC3)ccc12`, which emission maximum (in CCO) is on record?
Its emission maximum is 576 nm.

What about the emission maximum (in ClCCl) of the same molecule?
The emission maximum was 573 nm.

With `CC(C)(C)NC(=O)c1c([Si](C)(C)C)cc2ccc3cccc4ccc1c2c34` as the molecule, how does the emission maximum (in ClC(Cl)Cl) read?
Its emission maximum is 383 nm.

With `COc1ccc(Oc2ccc3c4c(cccc24)C(=O)N(c2c(C(C)C)cccc2C(C)C)C3=O)cc1` as the molecule, how does the emission maximum (in ClCCl) read?
The emission maximum was 434 nm.

With `COc1ccc2cc(C#CC3=C4CCc5ccccc5C4=[O+][B-](F)(F)O3)ccc2c1` as the molecule, how does the emission maximum (in ClCCl) read?
Its emission maximum is 566 nm.

For `C(=C\c1nc2ccccc2s1)/c1ccc(-c2nc3c4cccnc4c4ncccc4c3[nH]2)cc1`, which emission maximum (in C1CCOC1) is on record?
Its emission maximum is 469 nm.

And the emission maximum (in CC#N)?
The emission maximum was 485 nm.

And the emission maximum (in CO)?
The emission maximum was 488 nm.

What about the emission maximum (in ClCCl) of the same molecule?
The emission maximum was 472 nm.

For `CCCCCCCCc1ccc(-c2ccc(/C=C(\C#N)c3ccc(-c4cccc5cccc(-c6ccc(/C(C#N)=C/c7ccc(-c8ccc(CCCCCCCC)cc8)cc7)cc6)c45)cc3)cc2)cc1`, which emission maximum (in Cc1ccccc1) is on record?
Its emission maximum is 491 nm.

With `Clc1cnc2nn3ccccc3c2n1` as the molecule, how does the emission maximum (in C1CCOC1) read?
Its emission maximum is 448 nm.

Which results are given for `Cc1ccccc1-c1c2ccc(=[N+]3CCN(C(=O)OC(C)(C)C)CC3)cc-2oc2cc(N3CCN(C(=O)OC(C)(C)C)CC3)ccc12`?
emission maximum (in CCO): 580 nm; emission maximum (in ClCCl): 577 nm

Which emission maximum (in ClCCl) does the source give for `Cc1cc(=O)cc(-c2ccc(-c3nc4ccccn4c3NC3CCCCC3)cc2)o1` here?
The emission maximum was 500 nm.

With `C1=Cc2ccccc2C(=Cc2ccc(-c3ccc(C=C4c5ccccc5C=Cc5ccccc54)cc3)cc2)c2ccccc21` as the molecule, how does the emission maximum (in C1CCOC1) read?
The emission maximum was 405 nm.

Which emission maximum (in C1CCCCC1) does the source give for `CN1CCCc2cc3c(C(F)(F)F)cc(=O)oc3cc21` here?
Its emission maximum is 439 nm.

And the emission maximum (in CC#N)?
The emission maximum was 510 nm.

And the emission maximum (in CCO)?
Its emission maximum is 515 nm.

What does the source list for `C[Si](C)(C)c1ccc2ccc3cccc4ccc1c2c34`?
emission maximum (in CCCCCC): 346 nm; emission maximum (in CO): 376 nm; emission maximum (in ClCCl): 377 nm

For `c1ccc2[nH]c(-c3cc(-c4nc5ccccc5[nH]4)cc(-c4nc5ccccc5[nH]4)c3)nc2c1`, which emission maximum (in CS(C)=O) is on record?
The emission maximum was 379.1 nm.

With `N#Cc1ccc2c(c1)C1(c3cc(C#N)ccc3-2)c2ccccc2N(c2ccccc2)c2ccccc21` as the molecule, how does the emission maximum (in Cc1ccccc1) read?
The emission maximum was 492.18 nm.

What does the source list for `CN(CCO)c1ccc(/N=N/c2ccc([N+](=O)[O-])cc2)cc1`?
emission maximum (in CO): 580 nm; emission maximum (in OCC(O)CO): 581 nm; emission maximum (in OCCO): 583 nm; emission maximum (in Oc1ccccc1): 581 nm

With `O=c1c2cccc3cccc(c32)c2nc3c4ccccc4c4ccccc4c3n12` as the molecule, how does the emission maximum (in ClCCl) read?
The emission maximum was 589 nm.

With `C(#Cc1nccnc1C#Cc1ccccc1)c1ccccc1` as the molecule, how does the emission maximum (in CC#N) read?
The emission maximum was 380 nm.

For `Cc1ccccc1CN(Cc1ccccc1C)c1nc(C#N)c(N(Cc2ccccc2C)Cc2ccccc2C)nc1C#N`, which emission maximum (in ClC(Cl)Cl) is on record?
The emission maximum was 582 nm.

Reference: the Deep4Chem optical property database
